Active and inactive are the calls of the source. No cut-off for these calls is given here.
How the values were obtained:
HL-60 [1] = assay: Antiproliferative activity against human HL60 cells assessed as reduction in cell proliferation incubated for 3 to 4 days by MTT assay; type: functional, cell-based
Daudi = assay: Antiproliferative activity against human Daudi cells assessed as reduction in cell proliferation incubated for 3 to 4 days by MTT assay; type: functional, cell-based
c-Myc/Max (Homo sapiens) [2] = molecular target: T1, c-Myc/Max (Homo sapiens) (UniProt P01106+P61244); assay: (§1) Inhibition of His6-tagged homogeneously purified recombinant Myc bHLH-LZ domain (unknown origin)/His6-tagged Max (151 residues) (unknown origin) interaction assessed as reduction in Myc/Max/DNA ternary complex formation using fluorescently-tagged (FAM) E-Box-containing double-stranded oligonucleotide at 100 uM by EMSA relative to control; type: protein-complex assay
[3] = Half life in plasma (unknown origin); type: ADME, cell-free
c-Myc/Max (Homo sapiens) [4] = molecular target: T1, c-Myc/Max (Homo sapiens); assay: Inhibition of Myc/Max protein interaction in human HL60 cells assessed as reduction in Myc/Max heterodimer formation at 1 to 12 uM by co-immunoprecipitation assay; type: cell-based
HL-60 [5] = assay: Induction of cell cycle arrest in human HL60 cells assessed as accumulation at G0/G1 phase incubated for 24 to 48 hrs by propidium iodide staining based flow cytometric analysis; type: functional
HL-60 [6] = assay: Induction of cell cycle arrest in human HL60 cells assessed as accumulation at G0/G1 phase at 5 uM incubated for 24 to 48 hrs by propidium iodide staining based flow cytometric analysis (reference value: 36%); type: functional
HL-60 [7] = assay: Induction of cell cycle arrest in human HL60 cells assessed as accumulation at G2/M phase at 5 uM incubated for 24 to 48 hrs by propidium iodide staining based flow cytometric analysis (reference value: 14%); type: functional
HL-60 [8] = assay: Induction of cell cycle arrest in human HL60 cells assessed as accumulation at S phase at 5 uM incubated for 24 to 48 hrs by propidium iodide staining based flow cytometric analysis (reference value: 50%); type: functional
HL-60 [9] = assay: Induction of cell cycle arrest in human HL60 cells assessed as accumulation at G0/G1 phase at 10 uM incubated for 24 to 48 hrs by propidium iodide staining based flow cytometric analysis (reference value: 36%); type: functional
HL-60 [10] = assay: Induction of cell cycle arrest in human HL60 cells assessed as accumulation at G2/M phase at 10 uM incubated for 24 to 48 hrs by propidium iodide staining based flow cytometric analysis (reference value: 14%); type: functional
HL-60 [11] = assay: Induction of cell cycle arrest in human HL60 cells assessed as accumulation at S phase at 10 uM incubated for 24 to 48 hrs by propidium iodide staining based flow cytometric analysis (reference value: 50%); type: functional
[12] = molecular target: Myc proto-oncogene protein (Homo sapiens) (UniProt P01106); assay: Inhibition of Myc in human HL60 cells co-transfected with Myc-responsive E-box elements assessed as reduction c-Myc promoter-mediated luciferase expression at 10 to 50 uM after 6 hrs; type: cell-based
c-Myc/Max = c-Myc/Max (Homo sapiens, UniProt P01106); assay: as §1, with “oligonucleotide” for “oligonucleotide at 100 uM”; type: protein-complex assay

IC50 (HL-60 [1]) [µM] | IC50 (Daudi) [µM] | inhibition (c-Myc/Max (Homo sapiens) [2]) [%] | Compound | also measured
9.3 | 3.1 |  | CC(C)OC(=O)c1ccc(Nc2ccc([N+](=O)[O-])c3nonc23)cc1 | 
31.9 | 30.7 |  | CC(=O)OCOC(=O)c1ccc(Nc2ccc([N+](=O)[O-])c3nonc23)cc1 | 
 |  | 38 to 39 | O=[N+]([O-])c1ccc(Nc2ccccc2-c2ccccc2)c2nonc12 | half-life [3]: 37 min
> 25 | 7.4 |  | CCOC(=O)c1ccc(Nc2ccc([N+](=O)[O-])c3nonc23)cc1 | 
 |  | 39 | O=[N+]([O-])c1ccc(Nc2ccccc2Br)c2nonc12 | 
 |  | 93 to 94 | O=C(O)c1ccc(Nc2ccc([N+](=O)[O-])c3nonc23)cc1 | 
8.5 | 1.9 |  | O=C(OCC(F)(F)F)c1ccc(Nc2ccc([N+](=O)[O-])c3nonc23)cc1 | inhibition (c-Myc/Max (Homo sapiens) [4]): Active
 |  | 20 | O=[N+]([O-])c1ccc(Nc2cccc(-c3ccccc3)c2)c2nonc12 | 
 |  | 49 | O=C(O)c1cc([N+](=O)[O-])ccc1Nc1ccccc1-c1ccccc1 | 
 |  |  | COC(=O)c1ccc(Nc2ccc([N+](=O)[O-])c3nonc23)c(-c2ccc(C)cc2)c1 | Activity (HL-60 [5]): Dose-dependent effect; Activity (HL-60 [6]): 44%; Activity (HL-60 [7]): 12%; Activity (HL-60 [8]): 44%; Activity (HL-60 [9]): 59.5%; Activity (HL-60 [10]): 17%; Activity (HL-60 [11]): 23%; inhibition [12]: Active
7.2 | 3.5 |  | O=C(OCc1ccccc1)c1ccc(Nc2ccc([N+](=O)[O-])c3nonc23)cc1 | 
20 | 7.8 |  | COC(=O)c1ccc(Nc2ccc([N+](=O)[O-])c3nonc23)cc1 | 
 | 2.5 to 3.1 |  | O=C(Oc1ccccc1)c1ccc(Nc2ccc([N+](=O)[O-])c3nonc23)cc1 | inhibition (c-Myc/Max (Homo sapiens) [4]): Active; IC50 (c-Myc/Max): 39.7 µM

Reference: ChEMBL document CHEMBL4482307 (2014)
